Columns and labels:
[1] = target: T1, V30M TTR (Homo sapiens, UniProt P02766, V50M); assay: In vitro fibrillogenesis by V30M TTR at acidic pH (turbidity at 400 nm); assay type: biochemical; conditions: 3.6 μM TTR, 10.8 μM inhibitor, pH 4.4, 37° C., average of two measurements
T1 construct: made in house; host or cells: E. coli
Description: (§1) The aim of this study was to evaluate the inhibitory effect of the same representative compounds of the inventions tested in Example 1 in vitro fibrillogenesis by human wild-type TTR and two major amyloidogenic variants (V30M and V 122I) at moderately acidic pH, in comparison to reference compounds. To highlight the inhibitory effect of CHF 5074 and CHF4795 versus diflunisal and tafamidis on in vitro fibrillogenesis by wild-type, V30M and V122I TTR at moderately acid pH, we followed the kinetics of fibril formation by these proteins, by monitoring the increase in turbidity at 400 nm as reported in Johnson et al., 2008, J. Med. Chem., 51:260 (which is incorporated herein by reference), upon incubation with TTR. The final concentration of TTR was of 3.6 μM, which is close to its physiological plasma concentration, with fibrillogenesis inhibitors at a final concentration of 10.8 μM. According to the procedure adopted for other inhibitors of fibrillogenesis (Johnson et al., 2008, J. Med. Chem., 51:260), TTR was incubated with each inhibitor at neutral pH (10 mM Na phosphate buffer, pH 7.2, 100 mM KCl, 1 mM EDTA) for 30 minutes at ambient temperature, prior to the incubation of the protein at acidic pH (200 mM Na Acetate buffer, pH 4.4, 100 mM KCl, 1 mM EDTA) at 37° C. in order to promote fibrillogenesis. Inhibitory effect data represent the average of two independent measurements for each compound.

[2] = target: T2, V 122I TTR (Homo sapiens, UniProt P02766, V142I); assay: In vitro fibrillogenesis by V122I TTR at acidic pH (turbidity at 400 nm); assay type: biochemical; conditions: 3.6 μM TTR, 10.8 μM inhibitor, pH 4.4, 37° C., average of two measurements; for inhibition at 10.8 µM: read-out: inhibitory effect on V 122I TTR fibrillogenesis
T2 construct: made in house; host or cells: E. coli
Description: as §1

[3] = target: T3, human wild-type TTR (Homo sapiens, UniProt P02766); assay: In vitro fibrillogenesis by wild-type TTR at acidic pH (turbidity at 400 nm); assay type: biochemical; conditions: 3.6 μM TTR, 10.8 μM inhibitor, pH 4.4, 37° C., average of two measurements; for inhibition at 10.8 µM: read-out: inhibitory effect on wild-type TTR fibrillogenesis
T3 construct: made in house; host or cells: E. coli
Description: as §1

[4] = target: T4, wild-type human transthyretin (TTR) (Homo sapiens, UniProt P02766); assay: Competitive binding to wild-type human TTR by fluorometric techniques; conditions: 20° C.; for emission peak of TTR-bound ANS in the presence of the compound / emission peak of TTR-bound tafamidis in the presence of the compound / emission peak of TTR-bound trans-resveratrol in the presence of the compound: 10 μM compound; for emission peak of TTR-bound ANS in the presence of the compound: 10 μM ANS, excitation 360 nm; for emission peak of TTR-bound ANS in the presence of the compound / emission peak of TTR-bound trans-resveratrol in the presence of the compound: 5 μM TTR; for emission peak of TTR-bound tafamidis in the presence of the compound: 10 μM tafamidis, 10 μM TTR; for emission peak of TTR-bound tafamidis in the presence of the compound / emission peak of TTR-bound trans-resveratrol in the presence of the compound: excitation 320 nm; for emission peak of TTR-bound trans-resveratrol in the presence of the compound: 10 μM trans-resveratrol; for relative binding affinity to TTR (competitive binding assays taken together): 50 mM Na phosphate buffer, pH 7.2, 150 mM NaCl
T4 construct: made in house; host or cells: E. coli

[5] = target: T4, wild-type human transthyretin (TTR); conditions: cited from earlier work

Row | SMILES | inhibition at 10.8 µM [2] [%] | inhibition at 10.8 µM [3] [%] | inhibitory effect on V30M TTR fibrillogenesis [1] | emission peak of TTR-bound ANS in the presence of the compound ([4]; pH 7.2) | emission peak of TTR-bound tafamidis in the presence of the compound ([4]; pH 7.2) | emission peak of TTR-bound trans-resveratrol in the presence of the compound ([4]; pH 7.2) | relative binding affinity to TTR (competitive binding assays taken together) [4] | binding affinity for TTR (known property of the fluorescent probes) [5] | also measured
1 | Oc1ccc(/C=C/c2cc(O)cc(O)c2)cc1 [trans-resveratrol, reference compound] |  |  |  |  |  |  |  | high binding affinity, greater than that of thyroxine | fluorescence emission of TTR-bound diflunisal exposed to equimolar compound ([4]; 10 μM TTR-bound diflunisal, equimolar compound, excitation 340 nm, pH 7.2): a spectrum similar to that of TTR-bound trans-resveratrol rather than to that of TTR-bound diflunisal was obtained
2 | O=S(=O)(O)c1cccc2cccc(Nc3ccccc3)c12 [ANS, 8-anilino-1-naphthalene sulfonate] |  |  |  |  |  |  |  | relatively low binding affinity | 
3 | CC(C)(C(=O)O)c1ccc(-c2cc(Cl)cc(Cl)c2)c(F)c1 [CHF 4795, 2-methyl-(3′,5′-dichloro-2-fluoro-biphenyl-4-yl) propionic acid] |  |  | inhibitory effects similar to those observed with wild-type TTR | nearly completely abolished | nearly completely shifted to that of unbound tafamidis | nearly completely abolished | higher binding affinity to TTR as compared to trans-resveratrol |  | inhibitory effect on V 122I TTR fibrillogenesis [2]: about 92%; inhibitory effect on wild-type TTR fibrillogenesis [3]: about 75%

Second part, led by results:

Row | inhibition at 10.8 µM [2] [%] | inhibition at 10.8 µM [3] [%] | SMILES | inhibitory effect on V30M TTR fibrillogenesis [1] | emission peak of TTR-bound ANS in the presence of the compound ([4]; pH 7.2) | emission peak of TTR-bound tafamidis in the presence of the compound ([4]; pH 7.2) | emission peak of TTR-bound trans-resveratrol in the presence of the compound ([4]; pH 7.2) | relative binding affinity to TTR (competitive binding assays taken together) [4] | binding affinity for TTR (known property of the fluorescent probes) [5] | also measured
4 | ~92 | ~75 | O=C(O)c1cc(-c2ccc(F)cc2F)ccc1O [diflunisal, reference compound] | inhibitory effects similar to those observed with wild-type TTR |  |  |  |  |  | 
5 | ~92 | ~75 | O=C(O)C1(c2ccc(-c3ccc(Cl)c(Cl)c3)c(F)c2)CC1 [CHF 5074, 1-(3′,4′-dichloro-2-fluorobiphenyl-4-yl)cyclopropanecarboxylic acid] | inhibitory effects similar to those observed with wild-type TTR | nearly completely abolished | nearly completely shifted to that of unbound tafamidis | nearly completely abolished | higher binding affinity to TTR as compared to trans-resveratrol |  | 
6 | ~92 | ~75 | O=C(O)c1ccc2nc(-c3cc(Cl)cc(Cl)c3)oc2c1 [tafamidis, 2-(3,5-dichlorophenyl)-1,3-benzoxazole-6-carboxylic acid, reference compound] | inhibitory effects similar to those observed with wild-type TTR |  |  |  |  |  | 

From US9150489B2, “1-(2-fluorobiphenyl-4-yl)-alkyl carboxylic acid derivatives for the therapy of transthyretin amyloidosis” (CHIESI FARMACEUTICI S.p.A., priority 2010, dated 2015)
